This passage reports EC90 results from patent US8697694B2, “Substituted pyridine and pyrimidine derivatives and their use in treating viral infections” (priority 2008, dated 2014).

Structures are written as SMILES.

In this experiment the test system is HCV replicon cells. Kind of experiment: Cell-based HCV replicon assay (replicon RNA level by real time PCR, Taqman). To be noted: Hepatitis C virus, 72 h, HCV replicon cells, replicon RNA level by real time PCR, harvested day 3; read-out: EC90 (μM) range. Summed up: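 Readout: ΔCT between NS5B replicon RNA and GAPDH by real-time RT-PCR in lysates harvested on day 3, fitted sigmoidally; EC50 at ΔCT=1, EC90 at ΔCT=3.2. Compounds tested at ten 2-fold dilutions from 25 μM to 1 μM start, 10% FBS, 0.5% DMSO.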
On to `Cc1nc(NCC(F)(F)F)nc(NC2CCNCC2)c1-c1nc2ccccc2s1` [Example 1516], for which the EC90 (usually the concentration needed for an effect of 90%) is 0.5 to 5 µM.

Regarding `Cc1nc(NCC(F)(F)F)nc(NC2CCNC2)c1-c1nc2ccccc2s1` (stereo not shown) [Example 1517], the EC90 was above 5 µM.

Consider `Cc1nc(NCC(F)(F)F)nc(N[C@@H]2C[C@H](CNS(=O)(=O)CCN)[C@@H](O)[C@H]2O)c1-c1nc2ccccc2s1` [Example 1518], for which the EC90 was above 5 µM.

Turning to `Cc1nc(NCC(F)(F)F)nc(N[C@@H]2C[C@H](CN)[C@@H](O)[C@H]2O)c1-c1nc2ccccc2s1` [Example 1519], the EC90 was in the range of 0.5 to 5 µM.

For the compound `Cc1nc(NCC(F)(F)F)nc(N[C@@H]2C[C@H](CNS(=O)(=O)CC(F)(F)F)[C@@H](O)[C@H]2O)c1-c1nc2ccccc2s1` [Example 1520], the EC90 lay within 0.5 to 5 µM.

With `CCS(=O)(=O)NC[C@H]1C[C@@H](Nc2nc(NCC(F)(F)F)nc(C)c2-c2nc3ccccc3s2)[C@H](O)[C@@H]1O` [Example 1521], the EC90 lay within 0.5 to 5 µM.

As to `COC(=O)NC[C@H]1C[C@@H](Nc2nc(NCC(F)(F)F)nc(C)c2-c2nc3ccccc3s2)[C@H](O)[C@@H]1O` [Example 1522], the EC90 was 0.5 to 5 µM.

Take `Cc1nc(NCC(F)(F)F)nc(N[C@@H]2C[C@H](CNS(=O)(=O)C(F)(F)F)[C@@H](O)[C@H]2O)c1-c1nc2ccccc2s1` [Example 1523]: the EC90 was 0.5 to 5 µM.

`Cc1nc(N[C@H](C)c2cccc(F)c2)nc(N[C@@H]2C[C@H](CO)[C@@H](O)[C@H]2O)c1-c1nc2c(C)nccc2s1` [Example 1524]: the EC90 is below 0.5 µM.

Take `Cc1cccc([C@@H](C)Nc2nc(C)c(-c3nc4c(C)nccc4s3)c(N[C@@H]3C[C@H](CO)[C@@H](O)[C@H]3O)n2)c1` [Example 1525]: the EC90 is below 0.5 µM.

Take `CCc1ccc([C@@H](C)Nc2nc(C)c(-c3nc4c(C)nccc4s3)c(N[C@@H]3C[C@H](CO)[C@@H](O)[C@H]3O)n2)cc1` [Example 1526]: the EC90 was below 0.5 µM.

Take `Cc1ccccc1[C@@H](C)Nc1nc(C)c(-c2nc3c(C)nccc3s2)c(N[C@@H]2C[C@H](CO)[C@@H](O)[C@H]2O)n1` [Example 1527]: the EC90 is below 0.5 µM.

For the compound `Cc1nc(N[C@H](C)c2ccc(OC(F)(F)F)cc2)nc(N[C@@H]2C[C@H](CO)[C@@H](O)[C@H]2O)c1-c1nc2c(C)nccc2s1` [Example 1528], the EC90 was below 0.5 µM.

Turning to `COc1ccc([C@@H](C)Nc2nc(C)c(-c3nc4c(C)nccc4s3)c(N[C@@H]3C[C@H](CO)[C@@H](O)[C@H]3O)n2)cc1` [Example 1529], the EC90 was below 0.5 µM.

Take `Cc1nc(N[C@H](c2ccc(-n3cccn3)cc2)C(F)(F)F)nc(N[C@@H]2C[C@H](CO)[C@@H](O)[C@H]2O)c1-c1nc2c(C)nccc2s1` [Example 1530]: the EC90 was above 5 µM.

Take `Cc1nc(N[C@H](c2ccc(C(F)(F)F)cc2)C(F)(F)F)nc(N[C@@H]2C[C@H](CO)[C@@H](O)[C@H]2O)c1-c1nc2c(C)nccc2s1` [Example 1531]: the EC90 was above 5 µM.

`Cc1nc(N)nc(N[C@@H]2C[C@H](CO)[C@@H](O)[C@H]2O)c1-c1nc2c(C)nccc2s1` [Example 1534]: the concentration for an effect of 90% (EC90) is above 5 µM.

On to `CCCc1nccc2sc(-c3c(C)nc(NC4CC4)nc3N[C@@H]3C[C@H](CO)[C@@H](O)[C@H]3O)nc12` [Example 1535], for which the EC90 was below 0.5 µM.

For `Cc1nc(NC2CC2)nc(N[C@@H]2C[C@H](CO)[C@@H](O)[C@H]2O)c1-c1nc2c(CC(C)C)nccc2s1` [Example 1537], the EC90 was below 0.5 µM.

Regarding `Cc1nc(NCC(F)(F)F)nc(N[C@@H]2C[C@H](Cn3ccnn3)[C@@H](O)[C@H]2O)c1-c1nc2ccccc2s1` [Example 1538], the EC90 is below 0.5 µM.

On to `Cc1ccccc1[C@H](Nc1nc(C)c(-c2nc3c(C)nccc3s2)c(N[C@@H]2C[C@H](CO)[C@@H](O)[C@H]2O)n1)C(F)(F)F` [Example 1539], for which the EC90 was below 0.5 µM.

In the case of `COc1ccc([C@H](Nc2nc(C)c(-c3nc4c(C)nccc4s3)c(N[C@@H]3C[C@H](CO)[C@@H](O)[C@H]3O)n2)C(F)(F)F)cc1` [Example 1540], the EC90 was below 0.5 µM.
